Literature values as cited in patent US10300068B2, “Method of treating insomnia” (priority 2015, dated 2019).

How the values were obtained:
[1] = 20 mg, healthy adults
[2] = patients, assessed by questionnaire
[3] = 40 mg non-elderly, 30 mg elderly; mild to moderate COPD, n=25
[4] = co-administered with alcohol
[5] = obese vs non-obese patients, women vs men
[6] = Day 4, once-daily 40 mg, mild to moderate obstructive sleep apnea, n=26; 90% CI 0.22 to 5.09
intestinal P-gp = intestinal P-gp (Homo sapiens, UniProt P08183); conditions: concomitant administration with digoxin
intestinal P-gp, sequence (P08183 whole entry): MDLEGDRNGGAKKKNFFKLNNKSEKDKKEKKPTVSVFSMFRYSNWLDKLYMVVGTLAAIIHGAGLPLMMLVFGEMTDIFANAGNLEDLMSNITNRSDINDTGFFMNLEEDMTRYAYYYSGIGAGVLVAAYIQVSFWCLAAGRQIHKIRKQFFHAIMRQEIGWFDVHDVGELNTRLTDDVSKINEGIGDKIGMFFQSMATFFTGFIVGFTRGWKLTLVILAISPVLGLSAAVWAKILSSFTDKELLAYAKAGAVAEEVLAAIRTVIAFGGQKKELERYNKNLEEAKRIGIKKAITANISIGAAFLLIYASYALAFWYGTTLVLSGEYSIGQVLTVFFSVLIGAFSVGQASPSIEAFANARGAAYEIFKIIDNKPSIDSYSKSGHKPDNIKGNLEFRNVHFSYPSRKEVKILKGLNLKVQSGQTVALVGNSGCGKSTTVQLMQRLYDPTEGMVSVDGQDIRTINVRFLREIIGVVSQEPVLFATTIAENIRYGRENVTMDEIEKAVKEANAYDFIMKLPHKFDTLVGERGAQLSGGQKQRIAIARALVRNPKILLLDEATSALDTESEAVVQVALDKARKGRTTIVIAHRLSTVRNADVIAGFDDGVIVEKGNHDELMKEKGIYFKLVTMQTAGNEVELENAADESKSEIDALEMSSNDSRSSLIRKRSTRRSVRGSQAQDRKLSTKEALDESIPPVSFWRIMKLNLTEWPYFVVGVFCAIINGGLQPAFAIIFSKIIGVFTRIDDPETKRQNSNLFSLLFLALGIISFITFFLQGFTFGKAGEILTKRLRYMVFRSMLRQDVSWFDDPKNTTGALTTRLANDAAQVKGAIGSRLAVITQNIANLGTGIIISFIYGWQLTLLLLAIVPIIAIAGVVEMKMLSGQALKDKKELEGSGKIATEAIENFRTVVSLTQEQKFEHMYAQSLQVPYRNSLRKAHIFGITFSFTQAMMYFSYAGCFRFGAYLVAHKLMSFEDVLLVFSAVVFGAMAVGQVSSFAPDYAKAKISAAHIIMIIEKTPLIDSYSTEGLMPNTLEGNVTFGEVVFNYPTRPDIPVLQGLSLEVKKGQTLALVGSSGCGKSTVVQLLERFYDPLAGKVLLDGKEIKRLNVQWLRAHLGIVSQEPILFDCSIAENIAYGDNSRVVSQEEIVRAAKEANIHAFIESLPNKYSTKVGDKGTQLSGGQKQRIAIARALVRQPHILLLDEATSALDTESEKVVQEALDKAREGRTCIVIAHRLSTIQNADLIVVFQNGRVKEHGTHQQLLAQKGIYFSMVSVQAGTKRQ

[7] = test system: epicardial coronary arteries; conditions: patients with coronary artery disease

| SMILES | driving ability [1] | suicidal ideation [2] | respiratory depressant effects as measured by oxygen saturation [3] | pharmacokinetics of BELSOMRA [4] | psychomotor impairment [4] | exposure [5] | physical dependence with prolonged use (completed clinical trials) | withdrawal symptoms after discontinuation (human, in vivo) | mean Apnea/Hypopnea Index treatment difference (suvorexant-placebo) [6] | digoxin levels (intestinal P-gp) | relaxation of epicardial coronary arteries [7] |
| --- | --- | --- | --- | --- | --- | --- | --- | --- | --- | --- | --- |
| Cc1ccc(-n2nccn2)c(C(=O)N2CCN(c3nc4cc(Cl)ccc4o3)CC[C@H]2C)c1 [BELSOMRA, suvorexant] | impaired in some individuals | dose-dependent increase | no respiratory depressant effects | no alteration | additive psychomotor impairment | increased | no evidence for physical dependence | no reported withdrawal symptoms | 2.7 | slightly increased | – |
| CCCc1nn(C)c2c(=O)[nH]c(-c3cc(S(=O)(=O)N4CCN(C)CC4)ccc3OCC)nc12 [sildenafil] | – | – | – | – | – | – | – | – | – | – | relax epicardial coronary arteries |
